# Reference: US10081631B2, “2-(1H-indazol-3-yl)-1H-imidazo[4,5-C]pyridine and therapeutic uses thereof” (Samumed, LLC, priority 2014, dated 2018)
# Key:
# [1] = test system: Wnt activity (Sp5-Luc reporter, SW480 colon carcinoma cells); assay: Screening assay for Wnt activity: Sp5-Luc reporter gene assay in SW480 cells; assay type: cell-based; conditions: Homo sapiens, 42 h incubation, luminescence
# In short: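 IC50 values come from variable-slope four-parameter fits of luciferase signal normalized to DMSO wells. Stable Sp5-Luc reporter SW480 colon carcinoma cells were exposed to compounds in a 3-fold dilution series (source plates from 10 mM stock) for forty-two hours at 37 °C.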
# [2] = test system: primary human fibroblasts derived from IPF patients (LL29 cells); assay: Inhibition of fibrosis: TGF-β1-treated primary human fibroblasts from IPF patients (LL29), αSMA staining; assay type: cell-based; conditions: Fibroblast, 96 h, TGF-β1 20 ng/mL, 4 days, % αSMA-positive cells
# In short: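 […] (0.1% DMSO) on LL29 cells in F12 with 1% FBS, with TGF-β1 (20 ng/mL) added 1 h after plating; 4 days at 37 °C. SYTOX-positive dead cells were excluded and the % αSMA-positive cells was imaged, normalized to TGF-β1/DMSO wells, triplicates; EC50 by non-linear regression.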
Compound,IC50 [1] [nM],EC50 [2] [nM]
"CCCC(=O)Nc1cncc(-c2ccc3[nH]nc(-c4nc5c(-c6cc(F)cc(CNS(C)(=O)=O)c6)nccc5[nH]4)c3c2)c1 [Compound 407, N-(5-(3-(4-(3-Fluoro-5-(methylsulfonamidomethyl)phenyl)-1H-imidazo[4,5-c]pyridin-2-yl)-1H-indazol-5-yl)pyridin-3-yl)butyramide]",24,19
"CC(C)CC(=O)Nc1cncc(-c2ccc3[nH]nc(-c4nc5c(-c6ccc(F)s6)nccc5[nH]4)c3c2)c1 [Compound 314, N-(5-(3-(4-(5-Fluorothiophen-2-yl)-1H-imidazo[4,5-c]pyridin-2-yl)-1H-indazol-5-yl)pyridin-3-yl)-3-methylbutanamide]",44.7,665
"c1ccc(CNCc2cncc(-c3ccc4[nH]nc(-c5nc6c(-c7cccnc7)nccc6[nH]5)c4c3)c2)cc1 [Compound 101, N-Benzyl-1-(5-(3-(4-(pyridin-3-yl)-1H-imidazo[4,5-c]pyridin-2-yl)-1H-indazol-5-yl)pyridin-3-yl)methanamine]",47,2430
"Fc1cccc(-c2nccc3[nH]c(-c4n[nH]c5ccc(-c6cnccn6)cc45)nc23)c1 [Compound 1786, 4-(3-Fluorophenyl)-2-(5-(pyrazin-2-yl)-1H-indazol-3-yl)-1H-imidazo[4,5-c]pyridine]",35,9
"CS(=O)(=O)NCc1cc(F)cc(-c2nccc3[nH]c(-c4n[nH]c5ccc(-c6cncc(CNCc7ccccc7)c6)cc45)nc23)c1 [Compound 413, N-(3-(2-(5-(5-((Benzylamino)methyl)pyridin-3-yl)-1H-indazol-3-yl)-1H-imidazo[4,5-c]pyridin-4-yl)-5-fluorobenzyl)methanesulfonamide]",187,9
"CC(C)Nc1cncc(-c2ccc3[nH]nc(-c4nc5c(-c6cccnc6)nccc5[nH]4)c3c2)c1 [Compound 90, N-Isopropyl-5-(3-(4-(pyridin-3-yl)-1H-imidazo[4,5-c]pyridin-2-yl)-1H-indazol-5-yl)pyridin-3-amine]",4,9
"CC(C)Nc1cncc(-c2ccc3[nH]nc(-c4nc5c(-c6cc(F)cc(NCCN(C)C)c6)nccc5[nH]4)c3c2)c1 [Compound 428, N^1-(3-Fluoro-5-(2-(5-(5-(isopropylamino)pyridin-3-yl)-1H-indazol-3-yl)-1H-imidazo[4,5-c]pyridin-4-yl)phenyl)-N^2,N^2-dimethylethane-1,2-diamine]",6,9
"CN(C)Cc1cncc(-c2ccc3[nH]nc(-c4nc5c(-c6cccc(F)c6)nccc5[nH]4)c3c2)c1 [Compound 13, 1-(5-(3-(4-(3-Fluorophenyl)-1H-imidazo[4,5-c]pyridin-2-yl)-1H-indazol-5-yl)pyridin-3-yl)-N,N-dimethylmethanamine]",1,9
"c1ccc(CNCc2cncc(-c3ccc4[nH]nc(-c5nc6c(-c7ccsc7)nccc6[nH]5)c4c3)c2)cc1 [Compound 257, N-Benzyl-1-(5-(3-(4-(thiophen-3-yl)-1H-imidazo[4,5-c]pyridin-2-yl)-1H-indazol-5-yl)pyridin-3-yl)methanamine]",7,9
"O=C(Nc1cncc(-c2ccc3[nH]nc(-c4nc5c(-c6cccc(F)c6)nccc5[nH]4)c3c2)c1)C1CCCC1 [Compound 21, N-(5-(3-(4-(3-Fluorophenyl)-1H-imidazo[4,5-c]pyridin-2-yl)-1H-indazol-5-yl)pyridin-3-yl)cyclopentanecarboxamide]",12.8,317
"CC(C)Nc1cncc(-c2ccc3[nH]nc(-c4nc5c(-c6ccc(F)cc6)nccc5[nH]4)c3c2)c1 [Compound 38, 5-(3-(4-(4-Fluorophenyl)-1H-imidazo[4,5-c]pyridin-2-yl)-1H-indazol-5-yl)-N-isopropylpyridin-3-amine]",42.9,126
